In the experiment the target is T1, human Ox2R (Homo sapiens, UniProt O43614).
T1 construct: The gene encoding hOx2R was subcloned into the expression plasmid pcDNA5/FRT/TO; expressed in transfected cells; host or cells: CHO Flp-In cells (pcDNA5/FRT/TO with pOG44 Flp recombinase vector, hygromycin B selection)
T1 sequence (O43614 1-444): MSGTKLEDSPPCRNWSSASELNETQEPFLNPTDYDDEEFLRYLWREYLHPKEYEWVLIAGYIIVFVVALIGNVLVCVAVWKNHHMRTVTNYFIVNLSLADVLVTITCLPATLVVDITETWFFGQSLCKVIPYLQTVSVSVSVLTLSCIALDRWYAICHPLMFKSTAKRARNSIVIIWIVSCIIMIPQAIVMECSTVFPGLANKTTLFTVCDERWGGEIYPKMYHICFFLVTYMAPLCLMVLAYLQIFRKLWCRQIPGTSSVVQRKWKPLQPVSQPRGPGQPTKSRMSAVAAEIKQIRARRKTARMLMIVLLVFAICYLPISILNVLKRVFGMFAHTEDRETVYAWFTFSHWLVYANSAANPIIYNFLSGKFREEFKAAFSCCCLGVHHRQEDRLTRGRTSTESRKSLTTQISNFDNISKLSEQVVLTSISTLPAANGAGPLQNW
Description: Measurement of OX2R agonist activity (cell-based calcium release assay). To be noted: hOx2R-CHO Flp-In cells, n≥2 tests; for EC50: intracellular calcium, read-out: EC50; for Emax: read-out: Emax (%). The gist of the method: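 CHO Flp-In cells stably expressing human Ox2R, dye-loaded 1 h at 37 °C in HBSS/20 mM HEPES pH 7.4 with 2.5 mM probenecid and 10 mM CaCl2, then stimulated with compound.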
A general note: A change in cytosolic calcium serves as a functional read-out for many receptors and channels.

Setting [1] is: normalized to assay buffer (0%) and 10 μM Danavorexton (100%).

Consider `CS(=O)(=O)N[C@H]1CC[C@@]2(Cc3ccc(F)c(c3)-c3cccc(F)c3OCc3noc2n3)C1` [Example 112, N-[(1′S,14R)-6,19-difluorospiro[8,12-dioxa-11,21-diazatetracyclo[14.3.1.110,13.02,7]henicosa-1(20),2,4,6,10,13(21),16,18-octaene-14,3′-cyclopentane]-1′-yl]methanesulfonamide], for which the concentration for a half-maximal effect (EC50) is 1.3 nM. In addition, the maximal response (Emax) under setting [1] turned out to be 94%.

Turning to `Cc1nc2c(s1)-c1cc(ccc1F)C[C@@]1(CC[C@H](NS(C)(=O)=O)C1)c1nc(co1)CO2` [Example 102, N-[(1′S,13R)-18-fluoro-4-methyl-spiro[7,11-dioxa-3-thia-5,20-diazatetracyclo[13.3.1.19,12.02,6]icosa-1(18),2(6),4,9,12(20),15(19),16-heptaene-13,3′-cyclopentane]-1′-yl]methanesulfonamide], the concentration giving a half-maximal response (EC50) came to 2.1 nM. Moreover, the Emax under setting [1] was found to be 110%.

On to `C[C@@H]1Oc2ccccc2-c2cccc(c2)C[C@@]2(CC[C@H](NS(C)(=O)=O)C2)c2nccc1n2` (single isomer, unassigned) [Example 89, N-[(1′S,9S*,15R)-9-methylspiro[8-oxa-13,22-diazatetracyclo[15.3.1.110,14.02,7]docosa-1(21),2,4,6,10,12,14(22),17,19-nonaene-15,3′-cyclopentane]-1′-yl]methanesulfonamide], for which the concentration for a half-maximal effect (EC50) is 3.7 nM. Besides, under setting [1], the Emax came out at 110%.

With “N-[(3′R,14S)-6,17,19-trifluorospiro[8,12-dioxa-21-azatetracyclo[14.3.1.110,13.02,7]henicosa-1(19),2,4,6,10,13(21),16(20),17-octaene-1′,5′-tetrahydrofuran′-3′-yl]methanesulfonamide or N-[(3′S,14R)-6,17,19-trifluorospiro[8,12-dioxa-21-azatetracyclo[14.3.1.110,13.02,7]henicosa-1(19),2,4,6,10,13(21),16(20),17-octaene-1′,5′-tetrahydrofuran′-3′-yl]methanesulfonamide [Example 110]”, the EC50 stood at 0.32 nM. For the same compound, the “Emax (%)” value under setting [1] is 96%.

Take `CS(=O)(=O)N[C@H]1CC[C@@]2(Cc3ccc(C(F)(F)F)c(c3)-c3ccccc3OCc3coc2n3)C1` [Example 24, N-[(1′S,14R)-19-(trifluoromethyl)spiro[8,12-dioxa-21-azatetracyclo[14.3.1.110,13.02,7]henicosa-1(19),2,4,6,10,13(21),16(20),17-octaene-14,3′-cyclopentane]-1′-yl]methanesulfonamide]: the EC50 was found to be 5.2 nM. The Emax under setting [1] came out at 98%.

As to `Cn1cc2c(n1)OCc1coc(n1)[C@]1(CC[C@H](NS(C)(=O)=O)C1)Cc1cc-2c(F)cc1F` [Example 83, N-[(1′S,13R)-16,18-difluoro-4-methyl-spiro[7,11-dioxa-4,5,20-triazatetracyclo[13.3.1.19,12.02,6]icosa-1(18),2,5,9,12(20),15(19),16-heptaene-13,3′-cyclopentane]-1′-yl]methanesulfonamide], the EC50 was 2.6 nM. The maximal response (Emax) under setting [1] was found to be 100%.

On to `C[C@H]1Oc2c(F)cccc2-c2cc(ccc2F)C[C@@]2(CC[C@H](NS(C)(=O)=O)C2)c2nc1co2` [Example 85, N-[(1′S,9R,14R)-6,19-difluoro-9-methyl-spiro[8,12-dioxa-21-azatetracyclo[14.3.1.110,13.02,7]henicosa-1(19),2(7),3,5,10,13(21),16(20),17-octaene-14,3′-cyclopentane]-1′-yl]methanesulfonamide], for which the 50% effective concentration (EC50) was determined as 2.3 nM. Further, under setting [1], the Emax is 100%.

`O=S(=O)(N[C@H]1CC[C@@]2(Cc3ccc(F)c(c3)-c3cccc(F)c3OCc3coc2n3)C1)C(F)F` [Example 115, N-[(1′S,14R)-6,19-difluorospiro[8,12-dioxa-21-azatetracyclo[14.3.1.110,13.02,7]henicosa-1(20),2,4,6,10,13(21),16,18-octaene-14,3′-cyclopentane]-1′-yl]-1,1-difluoro-methanesulfonamide]: the EC50 is 0.37 nM. Also, under setting [1], the maximum response (Emax) was determined as 97%.

As to `CS(=O)(=O)N[C@H]1CC[C@@]2(CO[C@H]3CC[C@H](CC3)c3cccnc3OCc3coc2n3)C1` [Example 43, N-[(1s,1′S,14R,17s)-spiro[8,12,16-trioxa-6,22-diazatetracyclo[15.2.2.110,13.02,7]docosa-2,4,6,10,13(22)-pentaene-14,3′-cyclopentane]-1′-yl]methanesulfonamide], the EC50 is 0.69 nM. The Emax under setting [1] was 100%.

`CS(=O)(=O)N[C@H]1CC[C@@]2(Cc3cc(ccc3F)-c3cccc(Cl)c3OCc3coc2n3)C1` [Example 29, N-[(1′S,14R)-6-chloro-17-fluoro-spiro[8,12-dioxa-21-azatetracyclo[14.3.1.110,13.02,7]henicosa-1(19),2,4,6,10,13(21),16(20),17-octaene-14,3′-cyclopentane]-1′-yl]methanesulfonamide]: the concentration giving a half-maximal response (EC50) amounted to 2 nM. Moreover, the maximum response (Emax) under setting [1] was 98%.

With `CS(=O)(=O)N[C@H]1CC[C@@]2(CO[C@H]3CC[C@H](CC3)c3ccccc3OCc3nc2no3)C1` [Example 65, N-[(1s,1′S,14R,17s)-spiro[8,11,16-trioxa-12,22-diazatetracyclo[15.2.2.110,13.02,7]docosa-2,4,6,10(22),12-pentaene-14,3′-cyclopentane]-1′-yl]methanesulfonamide], the EC50 stood at 45 nM. Further, the maximum response (Emax) under setting [1] was 99%.

As for `CS(=O)(=O)N[C@H]1CC[C@@]2(Cc3ccc(F)c(c3)-c3cccc(F)c3OCc3csc2n3)C1` [Example 46, N-[(1′S,14R)-6,19-difluorospiro[8-oxa-12-thia-21-azatetracyclo[14.3.1.110,13.02,7]henicosa-1(19),2,4,6,10,13(21),16(20),17-octaene-14,3′-cyclopentane]-1′-yl]methanesulfonamide], the concentration giving a half-maximal response (EC50) is 0.14 nM. The Emax under setting [1] was 99%.

For the compound `CC1Oc2ccccc2-c2cccc(c2)C[C@@]2(CC[C@H](NS(C)(=O)=O)C2)c2nccc1n2` (single isomer, unassigned) [Example 88, N-[(1′S,9R*,15R)-9-methylspiro[8-oxa-13,22-diazatetracyclo[15.3.1.110,14.02,7]docosa-1(21),2,4,6,10,12,14(22),17,19-nonaene-15,3′-cyclopentane]-1′-yl]methanesulfonamide], the EC50 came out at 1600 nM. The maximal response (Emax) under setting [1] is 88%.

For the compound `CS(=O)(=O)NC1CCC2(C1)c1nc(co1)COc1c(F)cccc1-c1cc(ccc1F)C2F` (single isomer, unassigned) [Example 77, N-[(1′S,14R,15S or 15R)-6,15,19-trifluorospiro[8,12-dioxa-21-azatetracyclo[14.3.1.110,13.02,7]henicosa-1(19),2,4,6,10,13(21),16(20),17-octaene-14,3′-cyclopentane]-1′-yl]methanesulfonamide], the EC50 was found to be 1.4 nM. Under setting [1], the Emax is 99%.

In the case of `CS(=O)(=O)N[C@H]1CC[C@@]2(Cc3cc(c(F)cc3F)-c3ccccc3OCc3coc2n3)C1` [Example 18, N-[(1′S,14R)-17,19-difluorospiro[8,12-dioxa-21-azatetracyclo[14.3.1.110,13.02,7]henicosa-1(19),2,4,6,10,13(21),16(20),17-octaene-14,3′-cyclopentane]-1′-yl]methanesulfonamide], the half-maximal effective concentration (EC50) is 0.19 nM. Moreover, the maximal effect (Emax) under setting [1] was determined as 95%.

Turning to `CS(=O)(=O)N[C@H]1CC[C@@]2(Cc3ccc(Cl)c(c3)-c3cc(F)cc(F)c3OCc3coc2n3)C1` [Example 76, N-[(1′S,14R)-19-chloro-4,6-difluoro-spiro[8,12-dioxa-21-azatetracyclo[14.3.1.110,13.02,7]henicosa-1(19),2,4,6,10,13(21),16(20),17-octaene-14,3′-cyclopentane]-1′-yl]methanesulfonamide], the EC50 came out at 0.26 nM. Moreover, the maximal effect (Emax) under setting [1] came to 99%.

On to `CS(=O)(=O)N[C@H]1CC[C@@]2(Cc3ccc(F)c(c3)-c3cccc(F)c3OCC3=CN=C2O3)C1` [Example 7, N-[(1′S,14R)-6,19-difluorospiro[8,21-dioxa-12-azatetracyclo[14.3.1.110,13.02,7]henicosa-1(19),2,4,6,10,12,16(20),17-octaene-14,3′-cyclopentane]-1′-yl]methanesulfonamide], for which the EC50 was 21 nM. The Emax under setting [1] is 99%.

Take `CS(=O)(=O)N[C@H]1CC[C@@]2(Cc3cccc(c3)-c3cccc(c3)OCc3coc2n3)C1` [Example 48, N-[(1′S,13R)-spiro[7,11-dioxa-20-azatetracyclo[13.3.1.12,6.19,12]henicosa-1(19),2,4,6(21),9,12(20),15,17-octaene-13,3′-cyclopentane]-1′-yl]methanesulfonamide]: the 50% effective concentration (EC50) worked out at 15 nM. Also, the Emax under setting [1] is 95%.

Take `CS(=O)(=O)N[C@H]1CC[C@@]2(COCCCc3cccc(c3)OCc3coc2n3)C1` [Example 67, N-[(1S,8S)-spiro[2,6,10-trioxa-19-azatricyclo[12.3.1.14,7]nonadeca-1(18),4,7(19),14,16-pentaene-8,3′-cyclopentane]-1′-yl]methanesulfonamide]: the 50% effective concentration (EC50) was found to be 1200 nM. Besides, the Emax under setting [1] worked out at 94%.

As usually defined, the EC50 is the midpoint of the concentration-response curve. By Emax is commonly meant the size of the effect at its maximum, as opposed to the concentration needed.

The record behind these values is patent publication US12590106B2, “Spiromacrocyclic orexin 2 receptor agonists” (H. Lundbeck A/S, priority 2023, dated 2026).
